# “Also recorded” adds a separate entry of the source. Read-outs that look alike come from different tables or passages of the source.
# Assays:
# [1] = cited from earlier work
# Ewings = test: Response to weekly MGBG, Ewings; assay type: in vivo, human; details: 1 evaluable patient
# [2] = human subjects undergoing MGBG treatment; cited from earlier work
# [3] = test system: mitochondrial respiration; details: in vitro; cited from earlier work
# [4] = test system: Adenocarcinoma (unknown primary); test: Response to weekly MGBG, adenocarcinoma; assay type: in vivo, human
# Leukemia = test: Response to weekly MGBG, leukemia; assay type: in vivo, human; details: 1 mg/m^2 weekly for three weeks; 1 evaluable patient
# Description: **Patient received 1 mg/m^2 weekly for three weeks
# Lung (non-small cell) = test: Response to weekly MGBG, lung; assay type: in vivo, human; details: 6 evaluable patients
# Melanoma = test: Response to weekly MGBG, melanoma; assay type: in vivo, human; details: 1 evaluable patient
# Lymphoma = test: Response to weekly MGBG, lymphoma; assay type: in vivo, human; details: 2 evaluable patients
# [5] = test system: Bladder (transitional cell); test: Response to weekly MGBG, bladder; assay type: in vivo, human
# Head & Neck = test: Response to weekly MGBG, head & neck; assay type: in vivo, human; details: 2 evaluable patients
# leukemia-L1210 = details: Freelander and French; cited from earlier work
# Renal = test: Response to weekly MGBG, renal; assay type: in vivo, human
# [6] = design: muscle pain and weakness in patient with acute leukemia: dose or concentration left out as unconfirmed
# Description: During the course of the clinical experiments, MGBG was administered to patients in approximately weekly doses ranging from 250 to 1000 mg per square meter.
# Pre-treatment minimum evaluation included chest roentgenogram, liver and renal function tests, complete blood count with differential and platelet count and serum glucose. Pre-treatment performance status was recorded for each patient in accordance with SWOG criteria.
# This intravenous infusion is administered to the patient over a period of time not less than 30 minutes. Accordingly, an approximation of the patient's surface area in square meters is calculated using a height and weight to surface area nomogram (listed in Documenta Geigy, Scientific Tables (1970) p. 537) and this factor is applied in determining the appropriate amount of MGBG salt to be added to the infusion solution. […] In the absence of toxicity, subsequent doses of MGBG are increased by 100 mg/m^2 over the previous week's dose. If patients experience moderate or severe reversible toxicity, the dose is reduced by 100 mg/m^2 relative to the previous week's dose. No change in dosage strength is made for mild toxicity.
# Esophagus = test: Response to weekly MGBG, esophagus; assay type: in vivo, human
# spermidine biosynthesis = details: in vitro; concentrations as low as; cited from earlier work
# Breast = test: Response to weekly MGBG, breast; assay type: in vivo, human; details: 12 evaluable patients
# adenocarcinoma-755 = details: Freelander and French; cited from earlier work
# Colon = test: Response to weekly MGBG, colon; assay type: in vivo, human; details: 14 evaluable patients
# [7] = acute leukemia, iv 150 mg/m^2/day
# [8] = lymphomas and solid tumors, iv 150 mg/m^2/day
structure (smiles),measurement,setting,value
"CC(C=NNC(=N)N)=NNC(=N)N [MGBG, 1,1'-[(methylethanediylidene)dinitrilo] diguanidine]",Leukopenia <3000/mm^3 or <50% of initial value,[1]; [7],16 patients
same,"Leukopenia <3000/mm^3 or <50% of initial value, severe toxicity which contributed to death",[1]; [7],1 patients
same,response to MGBG,"[1]; intravenous 150 mg/m^2/day, Regelson and Holland",seen only in the presence of significant toxicity which seriously compromised any clinical improvement
same,"""Myositis""","[1]; iv 150 mg/m^2/day, 46 patients",5 patients
same,Cutaneous lesions,"[1]; iv 150 mg/m^2/day, 46 patients",12 patients
same,Diarrhea,"[1]; iv 150 mg/m^2/day, 46 patients",32 patients
same,"Diarrhea, severe toxicity which contributed to death","[1]; iv 150 mg/m^2/day, 46 patients",1 patients
same,Oropharyngeal and/or esophageal toxicity,"[1]; iv 150 mg/m^2/day, 63 courses in 46 patients",43 patients
same,Hypoglycemia <60 mg %,[1]; iv 150 mg/m^2/day,4 patients
same,"Hypoglycemia <60 mg %, severe toxicity which contributed to death",[1]; iv 150 mg/m^2/day,2 patients
same,Laryngitis,[1]; iv 150 mg/m^2/day,14 patients
same,"Laryngitis, severe toxicity which contributed to death",[1]; iv 150 mg/m^2/day,1 patients
same,Proctitis,[1]; iv 150 mg/m^2/day,2 patients
same,Vulvovaginitis,[1]; iv 150 mg/m^2/day,4 patients
same,Leukopenia <3000 mm^3,[1]; [8],5 patients
same,"Leukopenia <3000 mm^3, severe toxicity which contributed to death",[1]; [8],1 patients
same,"Thrombocytopenia <75,000/mm^3",[1]; [8],3 patients
same,deaths to which severe toxicity contributed,[1]; of 27 patients who died while on study,6 patients
same,No Response,Ewings,1
same,toxic effects unique to man,[2],"esophagitis, ulcerative pharyngitis, laryngitis, stomatitis, genital mucosa swelling, conjunctivitis, mucositis, erythema, edema, desquamating dermatitis, and profound anorexia with associated weight loss; also recorded: mucositis, vasculitis, and profound anorexia with associated weight loss"
same,concentration with complete inhibition of mitochondrial respiration,[3],≥ 30000 ng/mL
same,CR (Complete response),[4]; 3 evaluable patients,1
same,CR + PR,[4]; 3 evaluable patients,1
same,IMP (Improvement noted),[4]; 3 evaluable patients,1
same,PR (Partial response),[4]; 3 evaluable patients,1
same,Duration Months,[4]; duration of CR + PR,2 Months
same,IMP (Improvement noted),Leukemia,1
same,CR + PR,Lung (non-small cell),2
same,No Response,Lung (non-small cell),4
same,PR (Partial response),Lung (non-small cell),2
same,IMP (Improvement noted),Melanoma,1
same,No Response,Lymphoma,2
same,CR (Complete response),[5]; 3 evaluable patients,1
same,CR + PR,[5]; 3 evaluable patients,1
same,No Response,[5]; 3 evaluable patients,2
same,Duration Months,[5]; duration of CR + PR,1 Months
same,No Response,Head & Neck,2
same,antitumor activity,leukemia-L1210,growth inhibiting effects; also recorded: antitumor activity
same,CR + PR,Renal; 5 evaluable patients,1
same,IMP (Improvement noted),Renal; 5 evaluable patients,2
same,No Response,Renal; 5 evaluable patients,2
same,PR (Partial response),Renal; 5 evaluable patients,1
same,Duration Months,Renal; duration of CR + PR,5 Months
same,Number with Toxicity,"[6]; 1 course MGBG, 13 patients",1 patients
same,Number with Toxicity (Approx %),"[6]; 1 course MGBG, 13 patients",8%
same,Number with Toxicity,"[6]; 2 courses MGBG, 25 patients",7 patients
same,Number with Toxicity (Approx %),"[6]; 2 courses MGBG, 25 patients",28%
same,Number with Toxicity,"[6]; 3 courses MGBG, 15 patients",6 patients
same,Number with Toxicity (Approx %),"[6]; 3 courses MGBG, 15 patients",40%
same,"Anemia, Hemoglobin 5.0-6.9 g/100 ml",[6]; 90 patients,2 patients
same,"Anemia, Hemoglobin 7.0-8.9 g/100 ml",[6]; 90 patients,1 patients
same,"Diarrhea: 3-4 stools/day, no dehydration",[6]; 90 patients,1 patients
same,"Diarrhea: 4 liquid stools/day, IV hydration required",[6]; 90 patients,1 patients
same,Granulocytes: <1000/mm^3,[6]; 90 patients,3 patients
same,vomiting ≤6 times/day,[6]; 90 patients,5 patients
same,vomiting ≥7 times/day,[6]; 90 patients,3 patients
same,patients with no toxicity (number),"[6]; 90 patients, 500 mg/m^2 or more each week",67 patients
same,Mucositis: drug-related death,"[6]; 90 patients, patient with hepatoma, one dose at 600 mg/m^2",1 patients
same,muscle pain and weakness in patient with acute leukemia,"[6]; acute leukemia, three weekly doses",One
same,toxicity at 250 mg/m^2 weekly,"[6]; first twelve patients, 250 mg/m^2 weekly",no toxicity
same,Anorexia (Approx. %),"[6]; human, in vivo",8%
same,Anorexia (No. of Patients),"[6]; human, in vivo",7 patients
same,Balanitis (Approx. %),"[6]; human, in vivo",4%
same,Balanitis (No. of Patients),"[6]; human, in vivo",4 patients
same,Diarrhea (Approx. %),"[6]; human, in vivo",3%
same,Diarrhea (No. of Patients),"[6]; human, in vivo",3 patients
same,Granulocytes: <1500 mm^3,"[6]; human, in vivo",2 patients
same,Hematologic (Approx. %),"[6]; human, in vivo",11%
same,Hematologic (No. of Patients),"[6]; human, in vivo",10 patients
same,Mucositis: erythema,"[6]; human, in vivo",3 patients
same,"Mucositis: ulcers, able to eat","[6]; human, in vivo",7 patients
same,"Mucositis: ulcers, unable to eat","[6]; human, in vivo",6 patients
same,Myelosuppression (number),"[6]; human, in vivo",7 patients
same,Myelosuppression (percent),"[6]; human, in vivo",8%
same,Myopathy (Approx. %),"[6]; human, in vivo",3%
same,Myopathy (No. of Patients),"[6]; human, in vivo",3 patients
same,Nausea and vomiting (Approx. %),"[6]; human, in vivo",16%
same,Nausea and vomiting (No. of Patients),"[6]; human, in vivo",14 patients
same,Platelets: 25 × 10^3 -50 × 10^3 /mm^3,"[6]; human, in vivo",2 patients
same,Skin rash (Approx. %),"[6]; human, in vivo",2%
same,Skin rash (No. of Patients),"[6]; human, in vivo",2 patients
same,Urethritis (Approx. %),"[6]; human, in vivo",3%
same,Urethritis (No. of Patients),"[6]; human, in vivo",3 patients
same,Vasculitis (Approx. %),"[6]; human, in vivo",2%
same,Vasculitis (No. of Patients),"[6]; human, in vivo",2 patients
same,anemia (number),"[6]; human, in vivo",3 patients
same,anemia (percent),"[6]; human, in vivo",3%
same,bloody diarrhea,"[6]; human, in vivo",1 patients
same,hospitalization secondary to vomiting,"[6]; human, in vivo",1 patients
same,"nausea, no vomiting","[6]; human, in vivo",5 patients
same,severe muscle pain and weakness of the lower extremities,"[6]; human, in vivo",three
same,cumulative toxicity,[6]; increasing numbers of courses,toxicity appeared to be cumulative
same,reversibility of muscle pain and weakness,[6]; three patients,reversible with drug withdrawal
same,creatinine phosphokinase and aldolase,[6]; three patients with muscle pain and weakness,normal
same,Number with Toxicity,"[6]; ≥4 courses MGBG, 56 patients",28 patients
same,Number with Toxicity (Approx %),"[6]; ≥4 courses MGBG, 56 patients",50%
same,CR + PR,Esophagus; 2 evaluable patients,1
same,No Response,Esophagus; 2 evaluable patients,1
same,PR (Partial response),Esophagus; 2 evaluable patients,1
same,Duration Months,Esophagus; duration of CR + PR,3 Months
same,concentration at which MGBG is a potent inhibitor of spermidine biosynthesis,spermidine biosynthesis,≥ 0.5 µg/mL
same,IMP (Improvement noted),Breast,2
same,No Response,Breast,10
same,antitumor activity,adenocarcinoma-755,antitumor activity
same,CR + PR,Colon,3
same,No Response,Colon,11
same,PR (Partial response),Colon,3
